Converted amounts (≈) assume the structure as drawn.
How the values were obtained:
[1] = molecular target: T1, Sodium- and chloride-dependent taurine transporter (Homo sapiens, UniProt P31641); experiment: Inhibition of human TauT
T1 sequence (P31641 whole entry): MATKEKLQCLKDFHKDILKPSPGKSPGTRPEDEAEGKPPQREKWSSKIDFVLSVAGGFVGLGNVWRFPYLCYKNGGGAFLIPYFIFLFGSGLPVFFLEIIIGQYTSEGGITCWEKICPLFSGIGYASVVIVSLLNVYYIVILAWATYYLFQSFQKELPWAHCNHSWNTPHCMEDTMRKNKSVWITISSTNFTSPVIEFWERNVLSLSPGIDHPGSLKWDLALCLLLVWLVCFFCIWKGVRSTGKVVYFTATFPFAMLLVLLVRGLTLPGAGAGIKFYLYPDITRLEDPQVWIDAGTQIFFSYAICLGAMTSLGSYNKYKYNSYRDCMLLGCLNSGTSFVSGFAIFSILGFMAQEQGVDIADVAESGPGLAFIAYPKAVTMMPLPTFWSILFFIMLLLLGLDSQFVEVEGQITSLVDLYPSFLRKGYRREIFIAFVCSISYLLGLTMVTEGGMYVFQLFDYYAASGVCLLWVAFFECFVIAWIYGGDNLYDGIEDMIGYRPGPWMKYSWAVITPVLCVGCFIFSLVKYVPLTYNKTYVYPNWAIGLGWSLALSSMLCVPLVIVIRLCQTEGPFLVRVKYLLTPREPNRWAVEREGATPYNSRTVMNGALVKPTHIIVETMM

[2] = molecular target: T2, Sodium- and chloride-dependent glycine transporter 2 (Homo sapiens, UniProt Q9Y345); experiment: Inhibition of human GlyT2
T2 sequence (Q9Y345 whole entry): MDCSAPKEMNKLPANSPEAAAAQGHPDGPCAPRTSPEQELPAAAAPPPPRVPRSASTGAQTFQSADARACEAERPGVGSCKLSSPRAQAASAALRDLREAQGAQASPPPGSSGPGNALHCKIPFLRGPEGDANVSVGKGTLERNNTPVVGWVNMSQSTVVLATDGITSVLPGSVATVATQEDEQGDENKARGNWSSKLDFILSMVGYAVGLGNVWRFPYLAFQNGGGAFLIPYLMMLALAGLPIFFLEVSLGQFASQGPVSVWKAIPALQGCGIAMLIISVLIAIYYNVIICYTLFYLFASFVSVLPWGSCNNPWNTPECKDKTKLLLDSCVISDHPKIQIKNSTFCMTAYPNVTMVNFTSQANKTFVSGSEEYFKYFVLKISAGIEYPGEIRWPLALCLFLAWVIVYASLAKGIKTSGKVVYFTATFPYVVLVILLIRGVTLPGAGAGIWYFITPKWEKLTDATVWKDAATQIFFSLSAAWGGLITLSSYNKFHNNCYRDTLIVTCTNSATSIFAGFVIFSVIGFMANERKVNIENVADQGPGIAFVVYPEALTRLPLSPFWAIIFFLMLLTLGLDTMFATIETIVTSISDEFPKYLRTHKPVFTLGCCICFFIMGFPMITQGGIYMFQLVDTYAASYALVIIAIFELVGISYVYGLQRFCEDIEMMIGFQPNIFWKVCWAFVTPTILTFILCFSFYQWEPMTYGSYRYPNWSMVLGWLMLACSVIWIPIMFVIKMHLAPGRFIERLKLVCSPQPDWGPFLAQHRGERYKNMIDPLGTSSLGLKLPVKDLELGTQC

[3] = molecular target: T3, Sodium- and chloride-dependent glycine transporter 1 (Homo sapiens, UniProt P48067); experiment: Inhibition of human GlyT1
T3 sequence (P48067 whole entry): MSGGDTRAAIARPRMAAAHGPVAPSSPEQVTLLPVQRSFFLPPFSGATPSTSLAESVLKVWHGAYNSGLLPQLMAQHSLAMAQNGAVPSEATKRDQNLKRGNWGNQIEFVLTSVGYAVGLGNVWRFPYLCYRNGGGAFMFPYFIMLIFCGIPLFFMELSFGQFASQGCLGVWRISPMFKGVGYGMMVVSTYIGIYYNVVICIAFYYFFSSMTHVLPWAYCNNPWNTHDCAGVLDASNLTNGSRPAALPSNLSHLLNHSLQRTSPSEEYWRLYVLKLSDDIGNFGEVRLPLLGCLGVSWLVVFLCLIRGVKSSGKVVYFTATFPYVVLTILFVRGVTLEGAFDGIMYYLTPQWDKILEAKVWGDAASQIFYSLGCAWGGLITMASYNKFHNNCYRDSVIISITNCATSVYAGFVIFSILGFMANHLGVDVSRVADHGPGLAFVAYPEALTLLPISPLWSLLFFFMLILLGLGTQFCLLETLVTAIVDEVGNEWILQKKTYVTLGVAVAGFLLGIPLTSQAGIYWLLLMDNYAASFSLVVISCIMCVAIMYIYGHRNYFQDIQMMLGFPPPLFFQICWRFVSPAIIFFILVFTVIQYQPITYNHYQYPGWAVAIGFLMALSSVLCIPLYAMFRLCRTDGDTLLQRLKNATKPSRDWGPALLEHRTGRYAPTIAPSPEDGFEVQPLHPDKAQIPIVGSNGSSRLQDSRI

Caco-2 [4] = experiment: Ratio of permeability from basolateral to apical over apical to basolateral side of Caco-2 cell expressing human p-glycoprotein; type: ADME, cell-based
[5] = Apparent permeability in Caco-2 cells; type: ADME, cell-based; conditions: human
Caco-2 [6] = experiment: Ratio of permeability from basolateral to apical over apical to basolateral side of Caco-2 cell expressing mouse p-glycoprotein; type: ADME, cell-based; conditions: human
[7] = Half life in rat; type: ADME, organism-based; conditions: in vivo
Cytochrome P450 2D6 = Cytochrome P450 2D6 (Homo sapiens, UniProt P10635); experiment: Inhibition of CYP2D6; type: ADME
Cytochrome P450 2C9 = Cytochrome P450 2C9 (Homo sapiens, UniProt P11712); experiment: Inhibition of CYP2C9; type: ADME
[8] = Partition coefficient, log P of the compound; type: physicochemical; conditions: octanol/water
[9] = Aqueous solubility of the compound; type: physicochemical
[10] = Clearance in rat; type: ADME, organism-based; conditions: in vivo
Cytochrome P450 3A4 = Cytochrome P450 3A4 (Homo sapiens, UniProt P08684); experiment: Inhibition of CYP3A4; type: ADME
Sequence of Cytochrome P450 3A4 (P08684 whole entry): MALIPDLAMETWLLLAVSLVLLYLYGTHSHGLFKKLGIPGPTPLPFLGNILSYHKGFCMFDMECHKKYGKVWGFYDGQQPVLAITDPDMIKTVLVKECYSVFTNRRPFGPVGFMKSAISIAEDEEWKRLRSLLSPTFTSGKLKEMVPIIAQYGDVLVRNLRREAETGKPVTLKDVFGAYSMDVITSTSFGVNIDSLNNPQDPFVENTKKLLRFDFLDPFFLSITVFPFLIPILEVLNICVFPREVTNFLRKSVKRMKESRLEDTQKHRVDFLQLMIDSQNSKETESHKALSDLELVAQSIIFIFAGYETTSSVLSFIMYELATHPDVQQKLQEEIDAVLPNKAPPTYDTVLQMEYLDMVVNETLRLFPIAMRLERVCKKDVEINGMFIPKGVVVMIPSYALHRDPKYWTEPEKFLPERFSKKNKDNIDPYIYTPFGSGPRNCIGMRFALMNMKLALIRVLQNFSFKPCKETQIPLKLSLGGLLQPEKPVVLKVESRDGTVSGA

Sequence of Cytochrome P450 2D6 (P10635 whole entry): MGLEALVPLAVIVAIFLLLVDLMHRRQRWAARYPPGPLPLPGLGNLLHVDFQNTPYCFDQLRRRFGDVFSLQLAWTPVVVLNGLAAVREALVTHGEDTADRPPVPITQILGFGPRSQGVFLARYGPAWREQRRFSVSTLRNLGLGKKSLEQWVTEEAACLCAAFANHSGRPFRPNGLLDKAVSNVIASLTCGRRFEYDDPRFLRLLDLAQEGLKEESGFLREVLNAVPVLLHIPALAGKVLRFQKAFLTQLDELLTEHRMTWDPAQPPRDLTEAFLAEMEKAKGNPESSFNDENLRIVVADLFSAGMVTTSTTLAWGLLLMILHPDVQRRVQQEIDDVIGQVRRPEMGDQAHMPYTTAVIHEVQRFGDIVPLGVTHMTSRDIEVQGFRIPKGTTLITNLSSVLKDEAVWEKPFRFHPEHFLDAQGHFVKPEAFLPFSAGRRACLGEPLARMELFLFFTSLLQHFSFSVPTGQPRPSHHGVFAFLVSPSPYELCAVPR
Sequence of Cytochrome P450 2C9 (P11712 whole entry): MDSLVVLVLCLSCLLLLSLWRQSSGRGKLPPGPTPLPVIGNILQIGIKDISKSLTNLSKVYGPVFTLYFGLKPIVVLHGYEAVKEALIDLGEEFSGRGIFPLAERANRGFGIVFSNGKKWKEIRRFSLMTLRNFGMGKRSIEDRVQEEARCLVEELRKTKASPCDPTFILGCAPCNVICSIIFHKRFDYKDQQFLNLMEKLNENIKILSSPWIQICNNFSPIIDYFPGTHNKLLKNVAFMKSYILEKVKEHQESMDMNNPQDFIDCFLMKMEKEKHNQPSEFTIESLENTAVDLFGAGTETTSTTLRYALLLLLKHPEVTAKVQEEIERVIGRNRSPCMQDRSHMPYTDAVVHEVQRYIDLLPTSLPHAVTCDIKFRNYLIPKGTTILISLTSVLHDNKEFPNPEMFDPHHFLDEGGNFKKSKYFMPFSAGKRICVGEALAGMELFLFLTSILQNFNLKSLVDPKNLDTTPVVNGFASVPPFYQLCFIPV

Structure (SMILES)	IC50 [1] [µM]	IC50 [2] [µM]	IC50 [3] [µM]	Ratio (Caco-2 [4])	Papp [5] [×10⁻⁶ cm/s]	Ratio (Caco-2 [6])	half-life [7] [min]	Activity (Cytochrome P450 2D6)	Activity (Cytochrome P450 2C9)	logP [8]	solubility [9] [µg/mL]	clearance [10] [mL/min/kg]	Activity (Cytochrome P450 3A4)
CCCS(=O)(=O)N1CCC(CNC(=O)c2ccc(Cl)cc2Cl)(C(=O)C2CC2)CC1	> 30	> 30	0.472	–	–	–	–	–	–	–	–	–	–
CCCS(=O)(=O)N1CCC(CNC(=O)C2CC2)(C(=O)N2CCOCC2)CC1	> 30	> 30	> 5	10.6	> 22	8.9	18	Not Active	Not Active	< 1.4	10000 (≈ 24.9 mM)	18	Not Active
CCCS(=O)(=O)N1CCC(CNC(=O)c2ccccc2)(C(=O)N2CCOCC2)CC1	> 30	> 30	0.264	10.6	> 22	8.9	18	Not Active	Not Active	< 1.4	10000 (≈ 22.9 mM)	18	Not Active
CCCS(=O)(=O)N1CCC(CNC(=O)c2ccccc2OC(F)(F)F)(C(=O)N2CCOCC2)CC1	> 30	> 30	0.0884	10.6	> 22	8.9	18	Not Active	Not Active	< 1.4	10000 (≈ 19.2 mM)	18	Not Active
CCCS(=O)(=O)N1CCC(CNC(=O)c2ccc(Cl)cc2Cl)(C(=O)NCC)CC1	> 30	> 30	0.517	–	–	–	–	–	–	–	–	–	–
CCCS(=O)(=O)N1CCC(CNC(=O)c2ccc(Cl)cc2Cl)(C(=O)N2CCC(N(C)C)C2)CC1 (centres undefined)	> 30	> 30	0.544	–	–	–	–	–	–	–	–	–	–
CCCS(=O)(=O)N1CCC(CNC(=O)c2c(F)cccc2F)(C(=O)N2CCOCC2)CC1	> 30	> 30	0.131	10.6	> 22	8.9	18	Not Active	Not Active	< 1.4	10000 (≈ 21.1 mM)	18	Not Active
CCCS(=O)(=O)N1CCC(C(=O)N2CCOCC2)([C@H](C)NC(=O)c2ccc(Cl)cc2Cl)CC1	–	–	> 5	–	–	–	–	–	–	–	–	–	–
CCCS(=O)(=O)N1CCC(CNC(=O)c2ccc(Cl)cc2Cl)(C(=O)N2CC(N)C2)CC1	> 30	> 30	0.109	–	–	–	–	–	–	–	–	–	–
CCCS(=O)(=O)N1CCC(CNC(=O)c2ccc(C(F)(F)F)cc2F)(C(=O)N2CCOCC2)CC1	> 30	> 30	0.0428	10.6	> 22	8.9	18	Not Active	Not Active	< 1.4	10000 (≈ 19.1 mM)	18	Not Active
CCCS(=O)(=O)N1CCC(CNC(=O)c2ccc(F)cc2C(F)(F)F)(C(=O)N2CCOCC2)CC1	> 30	> 30	0.0678	10.6	> 22	8.9	18	Not Active	Not Active	< 1.4	10000 (≈ 19.1 mM)	18	Not Active
CCCS(=O)(=O)N1CCC(CNC(=O)c2ccc(Cl)cc2Cl)(C(=O)NCC2(C)COC2)CC1	> 30	> 30	0.069	–	–	–	–	–	–	–	–	–	–
CCCS(=O)(=O)N1CCC(CNC(=O)CC)(C(=O)N2CCOCC2)CC1	> 30	> 30	> 5	10.6	> 22	8.9	18	Not Active	Not Active	< 1.4	10000 (≈ 25.7 mM)	18	Not Active
CCCS(=O)(=O)N1CCC(C(=O)N2CCOCC2)([C@@H](C)NC(=O)c2ccc(Cl)cc2Cl)CC1	–	–	> 5	–	–	–	–	–	–	–	–	–	–
CCCS(=O)(=O)N1CCC(CNC(=O)c2ccc(Cl)cc2Cl)(C(=O)N(C)C)CC1	> 30	> 30	0.181	–	–	–	–	–	–	–	–	–	–
CCCS(=O)(=O)N1CCC(CNC(=O)c2ccc(Cl)cc2Cl)(C(=O)N2CCN(C)CC2)CC1	> 30	> 30	> 5	–	–	–	–	–	–	–	–	–	–

From ChEMBL document CHEMBL1145293, “Synthesis and SAR of GlyT1 inhibitors derived from a series of N-((4-(morpholine-4-carbonyl)-1-(propylsulfonyl)piperidin-4-yl)methyl)benzamides” (Bioorg Med Chem Lett, 2006)
